# Measurements published in patent US8496952B2, “Antimicrobial compositions comprising silver chloride and benzoisothiazoline” (Clariant Finance (BVI) Limited, priority 2007, dated 2013).
# How the values were obtained:
# [1] = test system: Staphylococcus aureus DSM 799, Pseudomonas aeruginosa DSM 1128, E-Coli DSM 682, Enterobacter aerogenes NCIMB 10102; assay: Kill-kinetic measurement according to the Clariant method, Ag salt/BIT (Example 1); format: cell-based; settings: summary of Table 1
# Method: (kill-kinetic measurement according to the Clariant method) of the composition Ag/BIT in comparison to the individual biocides AgCl, AgNO3, composition 1 and composition 5
# (§1) • 900 ml of phosphate buffer pH 7.0: • 600 ml of H2O dest. +117 ml of (b)+183 ml of (a)
# (§2) The bacteria are cultivated on a caso agar.
# (§3) Description of the kill-kinetic measurement according to the Clariant method After the bacteria have spent 24 hours on the culture medium (caso agar), 10 ml of the 0.1 M phosphate buffer are added thereto and mixed for 20 seconds using a vortex mixer; 9 ml of the 0.1 M buffer solution are added to 1 ml of this solution; in turn, 1 ml of this solution are taken and 9 ml of 0.1 M phosphate buffer are added. The resulting solution is the inoculum with which the test series is carried out.
# The concentration data given for the above samples refer in each case to elemental silver and pure BIT (i.e. not in salt form). Thus, for example in sample 4, AgNO3 and BIT were mixed together such that the mixture comprised 26.7 ppm of Ag, calculated as element, and 53.3 ppm of BIT, calculated as pure substance.
# The germ count was determined in each case at the start (0 h), after 0.5 h, 1 h; 2 h; 3 h; 5 h; 7 h and 24 h in accordance with the TVC method European Pharmacopoeia 2.6.12.
# [2] = test system: Staphylococcus aureus DSM 799, Pseudomonas aeruginosa DSM 1128, E-Coli DSM 682, Enterobacter aerogenes NCIMB 10102; assay: Kill-kinetic measurement according to the Clariant method, supported silver/BIT (Example 2); format: cell-based; settings: summary of Table 2
# Method: (Kill-kinetic measurement according to the Clariant method) of silver-BIT mixtures in comparison to the individual biocides silver and BIT
# as §1, §2
# as §3, with “After” for “Description of the kill-kinetic measurement according to the Clariant method After”
# The germ count was determined in each case at the start (0 h), after 0.5 h, 1 h, 2 h; 3 h; 5 h; 7 h and 24 h in accordance with the TVC method European Pharmacopoeia 2.6.12.
# [3] = Color stability of Ag/BIT compared with AgCl, AgNO3, JMAC; format: physicochemical
Molecule,antimicrobial effect / efficiency (in words) [1],antimicrobial effect / efficiency (in words) [2],Appearance after ([3]; 5 min),Appearance after ([3]; 30 min),Appearance after ([3]; 1 h),Appearance after ([3]; 2 h),Appearance after ([3]; 6 h),Appearance after ([3]; 24 h),Appearance after ([3]; immediately)
AgNO3 [Sample 8],moderate,–,–,–,–,–,–,–,–
silver ions,–,moderate,–,–,–,–,–,–,–
AgCl [Sample 9],moderate,–,–,–,–,–,–,–,–
"O=[N+]([O-])[O-].[Ag+] [AgNO3 solution, AgNO3]",–,–,dark gray,dark gray,dark gray,dark gray,dark gray,dark gray,gray
"O=c1[nH]sc2ccccc12 [Benzoisothiazoline, 1,2-benzoisothiazolin-3-one]",–,only develops its antimicrobial effect after many hours,–,–,–,–,–,–,–
[Cl][Ag] [AgCl],–,–,gray,dark gray,dark gray,dark gray,dark gray,dark gray,white
